Laboratory results taken from patent US11999716B2, “WDR5 inhibitors and modulators” (priority 2018, dated 2024).

The compounds below were run on MV4:11 human cancer cell lines (assay: Cellular viability / anti-proliferative activity, CellTiter-Glo, 5 day protocol). Details: Homo sapiens, MV4-11, 120 h, MV4:11 cells; 5 day incubation; CellTiter-Glo; mean of minimum two replicates; read-out: GI50 on cellular proliferation of MV4:11 human cancer cell lines.
Type: cell-based
Procedure: Cellular Viability of Human Tumor Cell Lines
Anti proliferative activity using MLL-harboring cell lines. […] Viability assays are performed by dispensing 200 cells at 7200 cells/mL into each well of an opaque 384-well plate and adding compounds at the indicated concentrations in a final volume of 32 μL and a final concentration of DMSO of 0.3% for all samples. A certain range of compound concentrations is made through a series of 2-fold dilutions starting 30 μM at the highest, total 22 dilutions. After a set incubation period, 5 day protocol, the viability of cells in each well is assessed using the CellTiter-Glo assay (Promega), read on a 96 Microplane Luminometer (Cytation 3, BioTek). Serial dilutions of each cell type are performed in all assays to generate standard curves and the final densities of cells are determined within the dynamic range of the instrument. GI50 values are calculated based on XLfit software (IDBS, Guildford, UK) with Sigmoidal Dose-Response Model. Each compound is tested in minimum of two replicates. Data are expressed as mean.
`COc1cc(CN2CCc3c(cc(Cn4cnc5ccccc54)cc3-c3ccc(F)cc3C)C2=O)cc(OC)c1` [Example 227] showed a GI50 of 7450 nM.
`CCc1ccnc(CN2CCc3c(cc(Cn4cnn(C)c4=N)cc3-c3cn(CC)nc3C(F)(F)F)C2=O)c1` [Example 129, 5-(1-Ethyl-3-(trifluoromethyl)-1H-pyrazol-4-yl)-2-((4-ethylpyridin-2-yl)methyl)-7-((5-imino-1-methyl-1,5-dihydro-4H-1,2,4-triazol-4-yl)methyl)-3,4-dihydroisoquinolin-1(2H)-one] was tested, and the GI50 was < 50 nM.
In the case of `COc1cc(CN2CCc3c(cc(Cn4ccn(C)c4=N)cc3-c3cc(C)nc(C)c3)C2=O)cc(OC)c1` [Example 154, 2-(3,5-Dimethoxybenzyl)-5-(2,6-dimethylpyridin-4-yl)-7-((2-imino-3-methyl-2,3-dihydro-1H-imidazol-1-yl)methyl)-3,4-dihydroisoquinolin-1(2H)-one], the GI50 was 559 nM.
Compound `COc1cc(CN2CCc3c(cc(Cn4ccccc4=N)cc3-c3ccc(F)cc3C)C2=O)cc(OC)c1` [Example 116, 2-(3,5-Dimethoxybenzyl)-5-(4-fluoro-2-methylphenyl)-7-((2-iminopyridin-1(2H)-yl)methyl)-3,4-dihydroisoquinolin-1(2H)-one] has a GI50 of 268 nM.
With `CCc1ccc(OCC(=O)NCc2cccnc2)c(CN2CCc3c(cc(Cn4ccnc4C)cc3-c3cn(C)nc3C(F)(F)F)C2=O)c1` [Example 215, 2-(4-Ethyl-2-((7-((2-methyl-1H-imidazol-1-yl)methyl)-5-(1-methyl-3-(trifluoromethyl)-1H-pyrazol-4-yl)-1-oxo-3,4-dihydroisoquinolin-2(19)-yl)methyl)phenoxy)-N-(pyridin-3-ylmethyl)acetamide] the GI50 was 168 nM.
For `Cc1cc([C@H](C)N2CCc3c(cc(CNc4cccc(=O)[nH]4)cc3-c3cn(C)nc3C(F)(F)F)C2=O)ccc1F` [Example 142, (S)-2-(1-(4-Fluoro-3-methylphenyl)ethyl)-5-(1-methyl-3-(trifluoromethyl)-1H-pyrazol-4-yl)-7-(((6-oxo-1,6-dihydropyridin-2-yl)amino)methyl)-3,4-dihydroisoquinolin-1(2H)-one], the GI50 was > 938 nM.
In the case of `COc1ccnc([C@H](C)N2CCc3c(cc(Cn4ccoc4=N)cc3-c3cn(C)nc3C(F)(F)F)C2=O)c1` [Example 93, (S)-7-((2-Iminooxazol-3(2H)-yl)methyl)-2-(1-(4-methoxypyridin-2-yl)ethyl)-5-(1-methyl-3-(trifluoromethyl)-1H-pyrazol-4-yl)-3,4-dihydroisoquinolin-1(2H)-one], the GI50 was < 50 nM.
In the case of `COc1ccnc(CN2CCc3c(cc(Cn4ccoc4=N)cc3-c3cn(C)nc3C(F)(F)F)C2=O)c1` [Example 84, 7-((2-Iminooxazol-3(2H)-yl)methyl)-2-((4-methoxypyridin-2-yl)methyl)-5-(1-methyl-3-(trifluoromethyl)-1H-pyrazol-4-yl)-3,4-dihydroisoquinolin-1(2H)-one], the GI50 was < 50 nM.
With `COc1cc(CN2CCc3c(cc(Cn4ccoc4=N)cc3-c3cccnc3C(F)(F)F)C2=O)cc(OC)c1` [Example 80, 2-(3,5-Dimethoxybenzyl)-7-((2-iminooxazol-3(2H)-yl)methyl)-5-(2-(trifluoromethyl)pyridin-3-yl)-3,4-dihydroisoquinolin-1(2H)-one] the GI50 was < 50 nM.
`COc1ccnc(CN2CCc3c(cc(CN4CCCC4=N)cc3-c3cn(C)nc3C(F)(F)F)C2=O)c1` [Example 108, 7-((2-Iminopyrrolidin-1-yl)methyl)-2-((4-methoxypyridin-2-yl)methyl)-5-(1-methyl-3-(trifluoromethyl)-1H-pyrazol-4-yl)-3,4-dihydroisoquinolin-1(2H)-one] was tested, and the GI50 was 181 nM.
Compound `Cc1cc([C@H](C2CC2)N2CCc3c(cc(Cn4ccn(C)c4=N)cc3-c3ccc(F)cc3C)C2=O)ccc1F` [Example 32, (S)-2-(Cyclopropyl(4-fluoro-3-methylphenyl)methyl)-5-(4-fluoro-2-methylphenyl)-7-((2-imino-3-methyl-2,3-dihydro-1H-imidazol-1-yl)methyl)-3,4-dihydroisoquinolin-1(2H)-one] has a GI50 of 64 nM.
Compound `Cc1ccnc(CN2CCc3c(cc(CN4CCCC4=N)cc3-c3cn(C)nc3C(F)(F)F)C2=O)c1` [Example 112, 7-((2-Iminopyrrolidin-1-yl)methyl)-5-(1-methyl-3-(trifluoromethyl)-1H-pyrazol-4-yl)-2-((4-methylpyridin-2-yl)methyl)-3,4-dihydroisoquinolin-1(2H)-one] has a GI50 of 160 nM.
In the case of `CCc1cccc(CN2CCc3c(cc(Cn4ccnc4C)cc3-c3cn(C)nc3C(F)(F)F)C2=O)c1` [Example 210, 2-(3-Ethylbenzyl)-7-((2-methyl-1H-imidazol-1-yl)methyl)-5-(1-methyl-3-(trifluoromethyl)-1H-pyrazol-4-yl)-3,4-dihydroisoquinolin-1(2H)-one], the GI50 was 148 nM.
Compound `Cc1cc(C)nc([C@@H](C)N2CCc3c(cc(Cn4ccnc4C)cc3-c3cn(C)nc3C(F)(F)F)C2=O)c1` [Example 166, (R)-2-(1-(4,6-Dimethylpyridin-2-yl)ethyl)-7-((2-methyl-1H-imidazol-1-yl)methyl)-5-(1-methyl-3-(trifluoromethyl)-1H-pyrazol-4-yl)-3,4-dihydroisoquinolin-1(2H)-one] has a GI50 of 89 nM.
`CCn1cc(-c2cc(Cn3ccoc3=N)cc3c2CCN(Cc2cn(C)nc2C)C3=O)c(C(F)(F)F)n1` [Example 97, 2-((1,3-Dimethyl-1H-pyrazol-4-yl)methyl)-5-(1-ethyl-3-(trifluoromethyl)-1H-pyrazol-4-yl)-7-((2-iminooxazol-3(2H)-yl)methyl)-3,4-dihydroisoquinolin-1(2H)-one] showed a GI50 of 212 nM.
In the case of `COc1cc(CN2CCc3c(OC4CCC4)cc(Cn4ccn(C)c4=N)cc3C2=O)cc(OC)c1` [Example 69, 5-Cyclobutoxy-2-(3,5-dimethoxybenzyl)-7-((2-imino-3-methyl-2,3-dihydro-1H-imidazol-1-yl)methyl)-3,4-dihydroisoquinolin-1(2H)-one], the GI50 was 502 nM.
For `Cc1cc([C@H](C)N2CCc3c(OCC4CC4)cc(Cn4ccnc4C4CC4)cc3C2=O)ccc1F` [Example 23, (S)-7-((2-Cyclopropyl-1H-imidazol-1-yl)methyl)-5-(cyclopropylmethoxy)-2-(1-(4-fluoro-3-methylphenyl)ethyl)-3,4-dihydroisoquinolin-1(2H)-one], the GI50 was > 938 nM.
For `CCn1cc(-c2cc(Cn3ccnc3C)cc3c2CCN([C@@H](C)c2cncc(OC)c2)C3=O)c(C(F)(F)F)n1` [Example 243, (S)-5-(1-Ethyl-3-(trifluoromethyl)-1H-pyrazol-4-yl)-2-(1-(5-methoxypyridin-3-yl)ethyl)-7-((2-methyl-1H-imidazol-1-yl)methyl)-3,4-dihydroisoquinolin-1(2H)-one], the GI50 was < 50 nM.
For `Cc1ccnc(CN2CCc3c(cc(Cn4ccoc4=N)cc3-c3cn(C)nc3C(F)(F)F)C2=O)c1` [Example 88, 7-((2-Iminooxazol-3(2H)-yl)methyl)-5-(1-methyl-3-(trifluoromethyl)-1H-pyrazol-4-yl)-2-((4-methylpyridin-2-yl)methyl)-3,4-dihydroisoquinolin-1(2H)-one], the GI50 was < 50 nM.
With `COc1ccnc(CN2CCc3c(cc(CN4CCN(C)C4=N)cc3-c3cn(C)nc3C)C2=O)c1` [Example 47, 5-(1,3-Dimethyl-1H-pyrazol-4-yl)-7-((2-imino-3-methylimidazolidin-1-yl)methyl)-2-((4-methoxypyridin-2-yl)methyl)-3,4-dihydroisoquinolin-1(2H)-one] the GI50 was 165 nM.
`Cc1nccn1Cc1cc2c(c(-c3cn(C)nc3C(F)(F)F)c1)CCN(Cc1cn(C(C)C)c3ccccc13)C2=O` [Example 193, 2-((1-Isopropyl-1H-indol-3-yl)methyl)-7-((2-methyl-1H-imidazol-1-yl)methyl)-5-(1-methyl-3-(trifluoromethyl)-1H-pyrazol-4-yl)-3,4-dihydroisoquinolin-1(2H)-one] was tested, and the GI50 was 2330 nM.
`CCn1cc(-c2cc(Cn3ccn(C)c3=N)cc3c2CCN(Cc2cn(C)nc2C)C3=O)c(C(F)(F)F)n1` [Example 77, 2-((1,3-Dimethyl-1H-pyrazol-4-yl)methyl)-5-(1-ethyl-3-(trifluoromethyl)-1H-pyrazol-4-yl)-7-((2-imino-3-methyl-2,3-dihydro-1H-imidazol-1-yl)methyl)-3,4-dihydroisoquinolin-1(2H)-one] was tested, and the GI50 was > 938 nM.
Compound `COc1cc(CN2CCc3c(cc(Cn4ccn(C)c4=N)cc3-c3ncc(F)cc3C)C2=O)cc(OC)c1` [Example 59, 2-(3,5-Dimethoxybenzyl)-5-(5-fluoro-3-methylpyridin-2-yl)-7-((2-imino-3-methyl-2,3-dihydro-1H-imidazol-1-yl)methyl)-3,4-dihydroisoquinolin-1(2H)-one] has a GI50 of 274 nM.
For `COc1ccnc(CN2CCc3c(cc(CN4CCOC4=N)cc3-c3cn(C)nc3C(F)(F)F)C2=O)c1` [Example 83, 7-((2-Iminooxazolidin-3-yl)methyl)-2-((4-methoxypyridin-2-yl)methyl)-5-(1-methyl-3-(trifluoromethyl)-1H-pyrazol-4-yl)-3,4-dihydroisoquinolin-1(2H)-one], the GI50 was < 50 nM.

Same assay, conditions: Homo sapiens, MV4-11, 120 h, read-out: GI50 on cellular proliferation of MV4:11 human cancer cell lines
`COc1ccnc(CN2CCc3c(cc(Cc4cncn4C)cc3-c3cn(C)nc3C(F)(F)F)C2=O)c1` [Example 131, 2-((4-Methoxypyridin-2-yl)methyl)-7-((1-methyl-1H-imidazol-5-yl)methyl)-5-(1-methyl-3-(trifluoromethyl)-1H-pyrazol-4-yl)-3,4-dihydroisoquinolin-1(2H)-one] was tested, and the GI50 was > 938 nM.
